From ChEMBL document CHEMBL3580557, “Anti-inflammatory Terpenoids from the Leaves and Twigs of Dysoxylum gotadhora” (J Nat Prod, 2015)
pIC50: −log10 of the molar value.

Key:
RAW264.7 [1] = assay: Antiinflammatory activity in mouse RAW264.7 cells assessed as inhibition of LPS-induced nitric oxide production at 12.5 uM after 24 hrs by Griess assay relative to control; assay type: functional; settings: RAW264.7, 24 h
RAW264.7 [2] = assay: Cytotoxicity against mouse RAW264.7 cells assessed as cell viability after 16 hrs by MTT assay; assay type: cell-based; settings: raw264.7, 16 h
RAW264.7 [3] = assay: Antiinflammatory activity in mouse RAW264.7 cells assessed as inhibition of LPS-induced nitric oxide production at 3.1 uM after 24 hrs by Griess assay relative to control; assay type: functional; settings: RAW264.7, 24 h
RAW264.7 [4] = assay: Antiinflammatory activity in mouse RAW264.7 cells assessed as inhibition of LPS-induced nitric oxide production at 25 uM after 24 hrs by Griess assay relative to control; assay type: functional; settings: RAW264.7, 24 h
RAW264.7 [5] = assay: Antiinflammatory activity in mouse RAW264.7 cells assessed as inhibition of LPS-induced nitric oxide production after 24 hrs by Griess assay; assay type: functional, cell-based; settings: RAW264.7, 24 h
RAW264.7 [6] = assay: Antiinflammatory activity in mouse RAW264.7 cells assessed as inhibition of LPS-induced nitric oxide production at 6.3 uM after 24 hrs by Griess assay relative to control; assay type: functional; settings: RAW264.7, 24 h
RAW264.7 [7] = assay: Antiinflammatory activity in mouse RAW264.7 cells assessed as inhibition of LPS-induced nitric oxide production at 50 uM after 24 hrs by Griess assay relative to control; assay type: functional; settings: RAW264.7, 24 h

Row | Structure (SMILES) | inhibition at 12.5 µM (RAW264.7 [1]) | Activity (RAW264.7 [2]) | inhibition at 3.1 µM (RAW264.7 [3]) | inhibition at 25 µM (RAW264.7 [4]) | pIC50 (RAW264.7 [5]) | inhibition at 6.3 µM (RAW264.7 [6]) | inhibition at 50 µM (RAW264.7 [7])
1 | CC(C)(O)[C@H]1OC[C@@H]([C@H]2CC[C@@]3(C)[C@@H]4CC[C@H]5C(C)(C)C(=O)CC[C@@]56C[C@@]46CC[C@]23C)C[C@@H]1O | 23.2% | Non-toxic | 12.5% | 49% | 4.59 | 18.5% | 76.2%
2 | CC1(C)OC[C@@H]([C@H]2CC[C@@]3(C)[C@@H]4CC[C@H]5C(C)(C)C(=O)CC[C@@]56C[C@@]46CC[C@]23C)C[C@@H](O)[C@@H]1O | 13.5% | Non-toxic | 11.3% | 28.3% | 4.38 | 4.5% | 58.9%
3 | C[C@H](C[C@@H](O)[C@H](O)C(C)(C)O)[C@H]1CC[C@@]2(C)[C@@H]3CC[C@H]4C(C)(C)C(=O)CC[C@@]45C[C@@]35CC[C@]12C | 23.8% | Non-toxic | 12.8% | 48.5% | 4.56 | 17.9% | 79.1%
4 | C=C[C@@]1(C)CC(=O)[C@H]2[C@@H](CC[C@H]3C(C)(C)[C@@H](O)CC[C@]23C)C1 | 41.5% | Non-toxic | 19.8% | 63.8% | 4.84 | 25.6% | 92.4%
5 | COC(=O)/C=C(\C)CC[C@@]1(C)[C@H](C)CC[C@@]2(C)C(C)=CC(=O)C[C@H]12 | 24.8% | Non-toxic | 19.4% | 35.3% | 4.34 | 19.9% | 56.6%
6 | COc1ccc2c(c1)c(CC(=O)O)c(C)n2C(=O)c1ccc(Cl)cc1 [INDOMETHACIN] | 38.5% |  | 21.5% | 44.3% |  | 24.5% | 57.9%
